According to patent US20170368148A1, “USES OF A PTHrP ANALOGUE IN REDUCING FRACTURE RISK” (RADIUS HEALTH, INC., priority 2015, published 2017):

Legend:
[1] = test system: postmenopausal women with osteoporosis; experiment: Phase 2 24-week dose-finding trial (48-week extension): BMD by DXA; format: in vivo, human
Source text: Healthy postmenopausal women between the ages of 55 to 85 (based on a 5-year history of amenorrhea and an elevated serum level of FSH) were enrolled in the study if they met one of the following the following definitions of osteoporosis:
Dual X-ray absorptiometry: DXA scans were obtained at each local site and then sent to a central imaging reader (BioClinica Inc. Newton, PA) where they underwent a quality control review and then analyzed according to each manufacturers guidelines. Scans performed during the treatment period on the same instrument used for the baseline scan were acquired. Each study site performed Instrument Quality Control over time (instrument standardization and phantom calibration) that was reviewed by the central reader.
BMD was re-measured at the 48-week visit.

[2] = test system: postmenopausal women with osteoporosis; experiment: Phase 2 24-week trial: serum biochemical markers of bone turnover; format: in vivo, human; details: 24 weeks; 20 μg daily SC
Experimental: Biochemical Markers of bone turnover: Fasting morning blood samples (collected 24 hours after last injection if taking teriparatide) were obtained at each visit. Serum osteocalcin (OC) was measured via electrochemiluminescence assay (Roche Diagnostics, Basel, Switzerland), with […] coefficients of variation (CVs) of 1.8% and 4.8% respectively. Serum amino-terminal propeptide of type 1 procollagen (P1NP) was measured via radioimmunoassay (Orion Diagnostica, Espoo, Finland) with inter- and intra-assay CVs of 4.5% and 5.5% respectively. Serum β-c-terminal telopeptide of type one collagen (CTX) was measured via electrochemiluminescence assay (Roche Diagnostics, Basel, Switzerland) with inter- and intraassay CVs of 3.8% and 6.9% respectively.

[3] = 24 weeks, abaloparatide 80 μg, teriparatide 20 μg, valid-completers
[4] = 48 weeks (extension), 20 μg daily SC

CC[C@H](C)[C@H](NC(=O)[C@H](CCC(=O)O)NC(=O)[C@H](CO)NC(=O)[C@@H](NC(=O)[C@@H](N)CO)C(C)C)C(=O)N[C@@H](CCC(N)=O)C(=O)N[C@@H](CC(C)C)C(=O)N[C@@H](CCSC)C(=O)N[C@@H](Cc1cnc[nH]1)C(=O)N[C@@H](CC(N)=O)C(=O)N[C@@H](CC(C)C)C(=O)NCC(=O)N[C@@H](CCCCN)C(=O)N[C@@H](Cc1cnc[nH]1)C(=O)N[C@@H](CC(C)C)C(=O)N[C@@H](CC(N)=O)C(=O)N[C@@H](CO)C(=O)N[C@@H](CCSC)C(=O)N[C@@H](CCC(=O)O)C(=O)N[C@@H](CCCN=C(N)N)C(=O)N[C@H](C(=O)N[C@@H](CCC(=O)O)C(=O)N[C@@H](Cc1c[nH]c2ccccc12)C(=O)N[C@@H](CC(C)C)C(=O)N[C@@H](CCCN=C(N)N)C(=O)N[C@@H](CCCCN)C(=O)N[C@@H](CCCCN)C(=O)N[C@@H](CC(C)C)C(=O)N[C@@H](CCC(N)=O)C(=O)N[C@@H](CC(=O)O)C(=O)N[C@H](C(=O)N[C@@H](Cc1cnc[nH]1)C(=O)N[C@@H](CC(N)=O)C(=O)N[C@@H](Cc1ccccc1)C(=O)O)C(C)C)C(C)C [teriparatide, hPTH(1-34)]
Femoral neck BMD increase ([1]; 24 weeks, 20 μg daily SC): 1.1±4.6% | Lumbar spine BMD increase (±SD) ([1]; 24 weeks, 20 μg daily SC): 5.5±4.1% | Total hip BMD increase ([1]; 24 weeks, 20 μg daily SC): 0.5±3.9% | Percentage of subjects with a >3% BMD gain at the lumbar spine [1, 3]: 70% | Percentage of subjects with a >3% total hip BMD gain [1, 3]: 16% | Femoral neck BMD increase [1, 4]: 2.2% | Lumbar spine BMD increase [1, 4]: 8.6% | Total hip BMD increase [1, 4]: 1.3% | CTX increase, median (interquartile range) [2]: 76 (13, 130) % | P1NP increase, median (interquartile range) [2]: 98 (21, 184) %
